From patent US6894062B1, “Quinoline derivatives” (Pfizer Inc., priority 2002, dated 2005)
Like-named read-outs stand apart in the source and are kept apart here.

Molecular target: T1, Rat 5HT7 Receptors (Rattus norvegicus, UniProt P32305)
T1 construct: expressed in transfected cells; host or cells: HEK-293
Assay: 3H-5-Carboxamidotryptamine (3H-5-CT) binding to rat 5HT7 receptors expressed in HEK-293 cells
Description: The affinities of the active compounds for 5HT7 receptors can be determined using standard radioligand binding assays as described in the literature. The 5HT7 affinity can be measured using the following procedure.
^3H-5-Carboxamidotryptamine (^3H-5-CT) Binding to Rat 5HT7 Receptors Expressed in HEK-293 Cells: […]
Nonspecific binding is determined using 1 uM 5-HT creatinine sulfate. […] Radioactivity is quantified by liquid scintillation counting using a BetaPlate counter (LKB).
The percent inhibition of specific binding is calculated for each concentration of test compound. […] Ki values are calculated according to Cheng & Prusoff: Ki=IC50/(1+(L/Kd)), where L is the concentration of the radioligand used in the experiment and the Kd value is the dissociation constant for the radioligand determined in separate saturation experiments. […]

T1 sequence (P32305 whole entry): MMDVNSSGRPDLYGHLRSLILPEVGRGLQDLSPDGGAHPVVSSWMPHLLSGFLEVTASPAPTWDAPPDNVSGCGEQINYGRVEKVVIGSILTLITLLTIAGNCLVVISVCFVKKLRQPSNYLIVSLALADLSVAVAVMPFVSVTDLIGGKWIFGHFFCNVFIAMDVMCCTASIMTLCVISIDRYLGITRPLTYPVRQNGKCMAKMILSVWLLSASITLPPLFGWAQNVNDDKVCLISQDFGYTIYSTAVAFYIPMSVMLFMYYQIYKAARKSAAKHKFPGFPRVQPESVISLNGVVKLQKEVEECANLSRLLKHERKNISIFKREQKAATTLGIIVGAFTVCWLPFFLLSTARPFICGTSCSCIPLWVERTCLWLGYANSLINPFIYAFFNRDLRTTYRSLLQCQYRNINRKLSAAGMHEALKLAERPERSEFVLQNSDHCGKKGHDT

SMILES | Ki [nM] | Ki (3H-5-CT 0.4 nM radioligand, HEK-293 cell membranes expressing rat 5HT7, Cheng & Prusoff, read-out: Ki) [nM]
Cc1cnc2c(C3CCCNC3)cccc2c1 (racemic) [Example 8, 3-Methyl-8-Piperidin-3-yl-Quinoline] | ~7.6 | 
CCc1cnc2cc(C3CCCNC3)ccc2c1 (racemic) [Example 10, 3-Ethyl-7-Piperidin-3-yl-Quinoline] |  | ~500
